Assay results as given in patent US9012412B2, “Dual SGLT1/SGLT2 inhibitors” (Janssen Pharmaceutica NV, priority 2013, dated 2015).
pIC50: −log10 of the molar value.

Assays:
human SGLT2 = target: T1, human SGLT2 (Homo sapiens, UniProt P31639); assay: Sodium-dependent 14C-methyl-α-D-glucopyranoside uptake in CHO-K1 cells stably expressing human SGLT2; type: cell-based; settings: for inhibition at 0.1 µM: compound at 0.1 μM; for pIC50: 14C-methyl-α-D-glucopyranoside uptake
T1 construct: expressed in transfected cells
T1 sequence (P31639 1-672): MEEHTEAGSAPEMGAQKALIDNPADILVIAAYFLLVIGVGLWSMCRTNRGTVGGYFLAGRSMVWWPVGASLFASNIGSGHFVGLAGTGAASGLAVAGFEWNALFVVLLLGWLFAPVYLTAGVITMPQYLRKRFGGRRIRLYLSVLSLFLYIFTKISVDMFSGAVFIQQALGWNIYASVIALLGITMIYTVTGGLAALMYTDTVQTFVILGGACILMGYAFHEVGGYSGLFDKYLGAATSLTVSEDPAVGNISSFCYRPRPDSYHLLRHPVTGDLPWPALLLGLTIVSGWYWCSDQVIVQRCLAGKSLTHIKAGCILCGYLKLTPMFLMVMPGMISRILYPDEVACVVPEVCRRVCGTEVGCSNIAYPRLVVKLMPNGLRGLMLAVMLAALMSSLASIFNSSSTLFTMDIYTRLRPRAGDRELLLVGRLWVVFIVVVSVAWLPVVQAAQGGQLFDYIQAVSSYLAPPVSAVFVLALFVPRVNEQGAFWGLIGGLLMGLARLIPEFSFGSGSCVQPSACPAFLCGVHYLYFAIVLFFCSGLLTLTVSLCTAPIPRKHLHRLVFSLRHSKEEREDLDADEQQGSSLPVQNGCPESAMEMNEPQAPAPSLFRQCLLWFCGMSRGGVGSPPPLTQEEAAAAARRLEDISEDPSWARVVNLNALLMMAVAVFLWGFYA
Experimental: (§1) SGLT1 and SGLT2 were cloned in form of cDNA from human small intestine (Genbank M24847), and from human kidney (Genbank M95549), respectively. Subsequently, each full cDNA was subcloned into pcDNA with each construct's integrity verified through follow-on sequencing. To generate CHO-K1 cells that stably express human SGLT1 or human SGLT2 CHO-K1 cells were transfected using DMRIE-C reagent (Life Technologies, Gaithersburg, Md.). Transfected cells were then selected in the presence of 500 μg/ml of the antibiotic G418 (Gibco-BRL, Grand Island, N.Y.). Individual clones were then characterized using the following cell-based assay for sodium-dependent glucose transport.
(§2) First, cell lines stably expressing human SGLT1 or SGLT2 were seeded at a density of 65,000 cells per well per 200 μl cell culture medium with 10 mM of NaButyrate (Aldrich Catalog No. 30341-0) in a 96-well flat bottom plate (COSTAR, Catalog No. 3903). For human SGLT1 or SGLT2 expressing CHO-K1 cells the culture medium comprised Ham's F-12 (Invitrogen Catalog No. 31765), Fetal Bovine Serum (Invitrogen Catalog No. 16000), G418 (Geneticin, Cellgro Catalog No. 30234-CI), Phlorizidin (Sigma Catalog No. P3449), DPBS (Cellgro Catalog No. 21030-CV), ^14C-methyl-α-D-glucopyranoside (Amersham Catalog No. CFB 76), and Methyl-α-D-glucopyranoside (Sigma Catalog No. M-9376).
(§3) The cells were allowed to incubate for 24 hours. Subsequently, the medium was aspirated from the plates and the cells were washed one time with 150 μl assay buffer and incubate 15 min with another 150 μl assay buffer which comprised 50 mM HEPES pH 7.4, 20 mM Tris Base, 5 mM KCl, 1 mM MgCl2, 1 mM CaCl2, and 137 mM NaCl. After removing the wash buffer, 40 μl assay buffer and 10 μl compound solution was added to each well, which was again allowed to incubate for 10 min.
(§4) Following the 10 min incubation, 10 μl of serial diluted Methyl-α-D-glucopyranoside (Sigma Catalog No. M-9376) containing 0.07 μCi ^14C-methyl-α-D-glucopyranoside (Amersham Catalog No. CFB 76) was added to the appropriate well and allowed to incubate for another 2 hours. ^14C-methyl-α-D-glucopyranoside (Sigma Catalog No. M-9376, St. Louis, Mo.) is a non-metabolizable glucose analog specific for sodium-dependent glucose transporters as previously described by H. Peng and J. E. Lever in “Post-transcriptional regulation of Na+/glucose cotransporter (SGLT1) gene expression in LLC-PK1 cells,” J. Biol. Chem. 270, 20536-42 (1995).
(§5) Next, the plates were twice washed with 150 μl of ice-cold DPBS (Cellgro Catalog No. 21030) that was then completely removed from the plates before adding 50 μl of MicroScint™-20 (Packard Catalog No. 6013621) to each well for a 20 min or longer incubation time.
(§6) Sodium-dependent ^14C-methyl-α-D-glucopyranoside uptake was quantified by measuring radioactivity. Plates were counted in a TopCount (Packard, Meriden, Conn.). Results are reported as the %-inhibition or IC50 value from a representative experiment. Variability for the functional assay was typically within 20%.

human SGLT1 = target: T2, human SGLT1 (Homo sapiens, UniProt P13866); assay: Sodium-dependent 14C-methyl-α-D-glucopyranoside uptake in CHO-K1 cells stably expressing human SGLT1; type: cell-based; settings: for inhibition at 0.1 µM: compound at 0.1 μM; for pIC50: 14C-methyl-α-D-glucopyranoside uptake
T2 construct: expressed in transfected cells
T2 sequence (P13866 1-664): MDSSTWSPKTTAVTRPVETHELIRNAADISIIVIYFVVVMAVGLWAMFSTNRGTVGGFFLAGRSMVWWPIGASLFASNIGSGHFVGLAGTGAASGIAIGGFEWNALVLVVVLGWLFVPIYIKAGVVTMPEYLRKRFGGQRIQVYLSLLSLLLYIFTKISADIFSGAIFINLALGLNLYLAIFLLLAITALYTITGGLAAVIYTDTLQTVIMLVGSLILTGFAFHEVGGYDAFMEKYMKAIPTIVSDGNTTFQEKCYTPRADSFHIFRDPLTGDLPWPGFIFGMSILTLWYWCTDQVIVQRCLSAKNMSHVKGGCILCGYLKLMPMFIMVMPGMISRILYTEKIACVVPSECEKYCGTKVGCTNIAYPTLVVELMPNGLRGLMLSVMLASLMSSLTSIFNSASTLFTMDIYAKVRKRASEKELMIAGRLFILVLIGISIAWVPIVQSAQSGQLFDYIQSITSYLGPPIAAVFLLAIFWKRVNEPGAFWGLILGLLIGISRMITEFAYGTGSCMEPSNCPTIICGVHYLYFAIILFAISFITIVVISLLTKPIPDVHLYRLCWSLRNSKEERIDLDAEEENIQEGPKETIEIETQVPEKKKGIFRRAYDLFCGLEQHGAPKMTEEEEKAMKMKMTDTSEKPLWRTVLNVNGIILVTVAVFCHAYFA
Experimental: as §1, §2, §3, §4, §5, §6

Row | SMILES | inhibition at 0.1 µM (human SGLT2) [%] | inhibition at 0.1 µM (human SGLT1) [%] | further results
1 | C=Cc1cc(O)c([C@@H]2O[C@H](CO)C[C@H](O)[C@H]2O)cc1Cc1cc2ccccc2s1 [Cpd 17, (2S,3R,4S,6S)-2-(5-(benzo[b]thiophen-2-ylmethyl)-2-hydroxy-4-vinylphenyl)-6-(hydroxymethyl)tetrahydro-2H-pyran-3,4-diol] | 64 | 58 | –
2 | O=C(c1cc2ccccc2s1)c1cc([C@@H]2O[C@H](CO)C[C@H](O)[C@H]2O)c(O)cc1O [Cpd 18, benzo[b]thiophen-2-yl(5-((2S,3R,4S,6S)-3,4-dihydroxy-6-(hydroxymethyl)tetrahydro-2H-pyran-2-yl)-2,4-dihydroxyphenyl)methanone] | – | – | inhibition at 0.3 µM (human SGLT2; compound at 0.3 μM): 13%; inhibition at 3 µM (human SGLT1; compound at 3 μM): 19%
3 | Cc1cc(O)c([C@@H]2O[C@H](CO)C[C@H](O)[C@H]2O)cc1Cc1cc2cc(F)ccc2s1 [Cpd 19, (2S,3R,4S,6S)-2-(5-((5-fluorobenzo[b]thiophen-2-yl)methyl)-2-hydroxy-4-methylphenyl)-6-(hydroxymethyl)tetrahydro-2H-pyran-3,4-diol] | – | – | pIC50 (human SGLT2): 7.39; pIC50 (human SGLT1): 6.66
4 | Cc1cc(O)c([C@@H]2O[C@H](CO)C[C@H](O)[C@H]2O)cc1Cc1cc2cc(Cl)ccc2s1 [Cpd 20, (2S,3R,4S,6S)-2-(5-((5-chlorobenzo[b]thiophen-2-yl)methyl)-2-hydroxy-4-methylphenyl)-6-(hydroxymethyl)tetrahydro-2H-pyran-3,4-diol] | 84 | 20 | –
5 | COc1c(Cc2cc3ccccc3s2)cc([C@@H]2O[C@H](CO)C[C@H](O)[C@H]2O)c(O)c1F [Cpd 21, (2S,3R,4S,6S)-2-(5-(benzo[b]thiophen-2-ylmethyl)-3-fluoro-2-hydroxy-4-methoxyphenyl)-6-(hydroxymethyl)tetrahydro-2H-pyran-3,4-diol] | 78 | 26 | –
6 | Cc1c(Cc2cc3ccccc3s2)cc([C@@H]2O[C@H](CO)C[C@H](O)[C@H]2O)c(O)c1C [Cpd 22, (2S,3R,4S,6S)-2-(5-(benzo[b]thiophen-2-ylmethyl)-2-hydroxy-3,4-dimethylphenyl)-6-(hydroxymethyl)tetrahydro-2H-pyran-3,4-diol] | 67 | 39 | –
7 | C=CCOc1c([C@@H]2O[C@H](CO)C[C@H](O)[C@H]2O)cc(Cc2cc3ccccc3s2)c(C)c1C [Cpd 24, (2S,3R,4S,6S)-2-(2-(allyloxy)-5-(benzo[b]thiophen-2-ylmethyl)-3,4-dimethylphenyl)-6-(hydroxymethyl)tetrahydro-2H-pyran-3,4-diol] | 40 | 31 | –
8 | Cc1cc(Br)c([C@@H]2O[C@H](CO)C[C@H](O)[C@H]2O)cc1Cc1cc2ccccc2s1 [Cpd 25, (2S,3R,4S,6S)-2-(5-(benzo[b]thiophen-2-ylmethyl)-2-bromo-4-methylphenyl)-6-(hydroxymethyl)tetrahydro-2H-pyran-3,4-diol] | 47 | 26 | –
9 | Cc1cc(-c2cc[nH]n2)c([C@@H]2O[C@H](CO)C[C@H](O)[C@H]2O)cc1Cc1cc2ccccc2s1 [Cpd 27, (2S,3R,4S,6S)-2-(5-(benzo[b]thiophen-2-ylmethyl)-4-methyl-2-(1H-pyrazol-3-yl)phenyl)-6-(hydroxymethyl)tetrahydro-2H-pyran-3,4-diol] | – | – | pIC50 (human SGLT2): 8.00; pIC50 (human SGLT1): 6.13
10 | Cc1cc(O)c([C@@H]2O[C@H](CO)C[C@H](O)[C@H]2O)cc1Cc1cc2ccccc2o1 [Cpd 28, (2S,3R,4S,6S)-2-(5-(benzofuran-2-ylmethyl)-2-hydroxy-4-methylphenyl)-6-(hydroxymethyl)tetrahydro-2H-pyran-3,4-diol] | 69 | 33 | –
11 | Cc1cc(Br)c([C@@H]2O[C@H](CO)C[C@H](O)[C@H]2O)cc1Cc1ccc(-c2ccc(F)cc2)s1 [Cpd 30, (2S,3R,4S,6S)-2-(2-bromo-5-((5-(4-fluorophenyl)thiophen-2-yl)methyl)-4-methylphenyl)-6-(hydroxymethyl)tetrahydro-2H-pyran-3,4-diol] | 73 | 44 | –
12 | CCc1ccc(Cc2cc([C@@H]3O[C@H](CO)C[C@H](O)[C@H]3O)c(O)cc2C)s1 [Cpd 32, (2S,3R,4S,6S)-2-(5-((5-ethylthiophen-2-yl)methyl)-2-hydroxy-4-methylphenyl)-6-(hydroxymethyl)tetrahydro-2H-pyran-3,4-diol] | – | – | pIC50 (human SGLT2): 8.40; pIC50 (human SGLT1): 7.01

The next lines start with results.

Row | inhibition at 0.1 µM (human SGLT2) [%] | inhibition at 0.1 µM (human SGLT1) [%] | SMILES | further results
13 | 70 | 50 | COc1c([C@@H]2O[C@H](CO)C[C@H](O)[C@H]2O)cc(Cc2cc3ccccc3s2)c(C)c1C [Cpd 23, (2S,3R,4S,6S)-2-(5-(benzo[b]thiophen-2-ylmethyl)-2-methoxy-3,4-dimethylphenyl)-6-(hydroxymethyl)tetrahydro-2H-pyran-3,4-diol] | –
14 | 57 | 33 | Cc1cc(-c2ccc[nH]2)c([C@@H]2O[C@H](CO)C[C@H](O)[C@H]2O)cc1Cc1cc2ccccc2s1 [Cpd 26, (2S,3R,4S,6S)-2-(5-(benzo[b]thiophen-2-ylmethyl)-4-methyl-2-(1H-pyrrol-2-yl)phenyl)-6-(hydroxymethyl)tetrahydro-2H-pyran-3,4-diol] | –
15 | 41 | 22 | Cc1cc(O)c([C@@H]2O[C@H](CO)C[C@H](O)[C@H]2O)cc1Cc1nc2ccccc2s1 [Cpd 29, (2S,3R,4S,6S)-2-(5-(benzo[d]thiazol-2-ylmethyl)-2-hydroxy-4-methylphenyl)-6-(hydroxymethyl)tetrahydro-2H-pyran-3,4-diol] | –
16 | 58 | – | Cc1cc(O)c([C@@H]2O[C@H](CO)C[C@H](O)[C@H]2O)cc1Cc1ccc(-c2ccc(F)cc2)s1 [Cpd 31, (2S,3R,4S,6S)-2-(5-((5-(4-fluorophenyl)thiophen-2-yl)methyl)-2-hydroxy-4-methylphenyl)-6-(hydroxymethyl)tetrahydro-2H-pyran-3,4-diol] | pIC50 (human SGLT1): 6.57
